Laboratory results published in ChEMBL document CHEMBL1201862, “PubChem BioAssay data set” (2004).
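Cultured in 96-well plates, cells were exposed to test compound for 48 hours across five concentrations. GI50 marks 50% less growth.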 Activity calls are given as the source filed them. Rule as the data show it: active = GI50 up to about 1.1 µM and inactive = higher.

Experiments:
Assay in all cases: NCI tumour cell line growth inhibition, 48 h
HOP-62 = system: HOP-62
SF-539 = system: SF-539
SF-295 = system: SF-295
SK-OV-3 = system: SK-OV-3
MDA-N = system: MDA-N
T47D = system: T47D
HOP-92 = system: HOP-92
NCI-H522 = system: NCI-H522
BT-549 = system: BT-549
HCT-116 = system: HCT-116
PC-3 = system: PC-3
OVCAR-5 = system: OVCAR-5
SNB-19 = system: SNB-19
CCRF-CEM = system: CCRF-CEM
RXF 393 = system: RXF 393
SF-268 = system: SF-268
UACC-257 = system: UACC-257
M14 = system: M14
MDA-MB-231 = system: MDA-MB-231
SR = system: SR

Structure (SMILES) | GI50 (HOP-62) | GI50 (SF-539) | GI50 (SF-295) | GI50 (SK-OV-3) | GI50 (MDA-N) | GI50 (T47D) | GI50 (HOP-92) | GI50 (NCI-H522) | GI50 (BT-549) | GI50 (HCT-116) | GI50 (PC-3) | GI50 (OVCAR-5) | GI50 (SNB-19) | GI50 (CCRF-CEM) | GI50 (RXF 393) | GI50 (SF-268) | GI50 (UACC-257) | GI50 (M14) | GI50 (MDA-MB-231) | GI50 (SR)
C[C@]12CC[C@H](O)C[C@@H]1CC[C@@H]1[C@@H]2CC[C@]2(C)[C@@H](C3=CC(=O)OC3)CC[C@]12O | 1.6 µM (inactive) | 1.29 µM (inactive) | 2.73 µM (inactive) | 3.21 µM (inactive) | 2.02 µM (inactive) | 3.77 µM (inactive) | 5.42 µM (inactive) | 0.719 µM (active) | 1.88 µM (inactive) | 1.73 µM (inactive) | 2.58 µM (inactive) | 4.25 µM (inactive) | 4.95 µM (inactive) | 0.76 µM (active) | 0.736 µM (active) | 1.75 µM (inactive) | 4.03 µM (inactive) | 3.45 µM (inactive) | 8.89 µM (inactive) | > 100 µM (inactive)
O=C1C(=C(I)I)c2ccccc2-c2ccccc21 | 11.9 µM (inactive) | 1.34 µM (inactive) | 16.6 µM (inactive) | 14.8 µM (inactive) | 2 µM (inactive) | 2.3 µM (inactive) | 2.26 µM (inactive) | 1.04 µM (active) | 6.12 µM (inactive) | 2.32 µM (inactive) | 3.71 µM (inactive) | 5.47 µM (inactive) | 14.4 µM (inactive) | 0.386 µM (active) | 1.68 µM (inactive) | 6.71 µM (inactive) | 2.1 µM (inactive) | 3.02 µM (inactive) | 2.03 µM (inactive) | 2.33 µM (inactive)
O=c1[nH]c(=O)n(CCOCP(=O)(O)O)nc1Br | > 100 µM (inactive) | > 100 µM (inactive) | – | – | > 100 µM (inactive) | > 100 µM (inactive) | > 100 µM (inactive) | > 100 µM (inactive) | > 100 µM (inactive) | – | > 100 µM (inactive) | > 100 µM (inactive) | > 100 µM (inactive) | > 100 µM (inactive) | > 100 µM (inactive) | > 100 µM (inactive) | – | > 100 µM (inactive) | > 100 µM (inactive) | > 100 µM (inactive)
CC(=O)OC(CC(C)C)P1(=O)N(CC(C)(C)C)[C@@H]2CCCC[C@H]2N1CC(C)(C)C (stereo partly specified) | 14.6 µM (inactive) | 10.5 µM (inactive) | 7.5 µM (inactive) | 15.1 µM (inactive) | 8.26 µM (inactive) | 5.36 µM (inactive) | 2.58 µM (inactive) | 6.4 µM (inactive) | 15.5 µM (inactive) | 5.24 µM (inactive) | 3.73 µM (inactive) | 10.2 µM (inactive) | 9.29 µM (inactive) | 13.2 µM (inactive) | 6.38 µM (inactive) | 15.1 µM (inactive) | 8.41 µM (inactive) | 7.4 µM (inactive) | 7.24 µM (inactive) | 10.2 µM (inactive)
COc1ccc(-c2nc(N)n(C)c2SSc2c(-c3ccc(OC)cc3)nc(N)n2C)cc1 | 17.5 µM (inactive) | 4.69 µM (inactive) | 11.6 µM (inactive) | 18.6 µM (inactive) | 2.63 µM (inactive) | 1.86 µM (inactive) | 2.28 µM (inactive) | 1.81 µM (inactive) | 2.32 µM (inactive) | 2.65 µM (inactive) | 6.34 µM (inactive) | 6.85 µM (inactive) | 12.9 µM (inactive) | 2.76 µM (inactive) | 2.74 µM (inactive) | 12.6 µM (inactive) | 5.96 µM (inactive) | 2.19 µM (inactive) | 6.78 µM (inactive) | 2.23 µM (inactive)
CN(C)/C=N/c1c2c(nc3ccccc13)CCCC2 | > 100 µM (inactive) | 96.4 µM (inactive) | 41.5 µM (inactive) | > 100 µM (inactive) | 61.7 µM (inactive) | 66.2 µM (inactive) | 33.1 µM (inactive) | > 100 µM (inactive) | > 100 µM (inactive) | 39.1 µM (inactive) | 38.5 µM (inactive) | > 100 µM (inactive) | > 100 µM (inactive) | 44 µM (inactive) | > 100 µM (inactive) | > 100 µM (inactive) | 71 µM (inactive) | > 100 µM (inactive) | > 100 µM (inactive) | 25.9 µM (inactive)
CCOC(=O)c1sc2nc(SC)nc(Nc3ccc4c(c3)OCCO4)c2c1N | 11.8 µM (inactive) | 7.52 µM (inactive) | 42.3 µM (inactive) | – | 10.4 µM (inactive) | 6.34 µM (inactive) | 13.1 µM (inactive) | 6.76 µM (inactive) | 16 µM (inactive) | 6.3 µM (inactive) | 13.2 µM (inactive) | 17.1 µM (inactive) | 17.6 µM (inactive) | 16.9 µM (inactive) | 3.93 µM (inactive) | 4.69 µM (inactive) | 21.7 µM (inactive) | 11 µM (inactive) | 11.1 µM (inactive) | 20.5 µM (inactive)
Cc1c(N2C(=O)/C(=C/C=C/c3ccccc3)N=C2c2ccccc2)c(=O)n(-c2ccccc2)n1C | 26.5 µM (inactive) | 21.3 µM (inactive) | 19.1 µM (inactive) | 23 µM (inactive) | 17.8 µM (inactive) | 30.8 µM (inactive) | 22.2 µM (inactive) | 16 µM (inactive) | 20.1 µM (inactive) | 34.8 µM (inactive) | 25.6 µM (inactive) | 24.8 µM (inactive) | – | 27.2 µM (inactive) | 17.9 µM (inactive) | 22.6 µM (inactive) | 18.9 µM (inactive) | 31.4 µM (inactive) | 22.1 µM (inactive) | 17.4 µM (inactive)
N#Cc1c(N)n(-c2nc3ccccc3s2)c(=O)c2cc([N+](=O)[O-])ccc12 | 7.08 µM (inactive) | 12.4 µM (inactive) | 9.2 µM (inactive) | 25.4 µM (inactive) | 25.9 µM (inactive) | 21.8 µM (inactive) | 14.1 µM (inactive) | 6.49 µM (inactive) | 21.2 µM (inactive) | 4.44 µM (inactive) | 5.51 µM (inactive) | 24.8 µM (inactive) | 17.7 µM (inactive) | 0.0453 µM (active) | 7.62 µM (inactive) | 15 µM (inactive) | 23.4 µM (inactive) | 23.2 µM (inactive) | 15.6 µM (inactive) | 14.2 µM (inactive)
Nc1cc(N)cc(Cc2ccccc2)c1 | > 100 µM (inactive) | > 100 µM (inactive) | > 100 µM (inactive) | > 100 µM (inactive) | > 100 µM (inactive) | > 100 µM (inactive) | > 100 µM (inactive) | > 100 µM (inactive) | > 100 µM (inactive) | > 100 µM (inactive) | > 100 µM (inactive) | > 100 µM (inactive) | > 100 µM (inactive) | > 100 µM (inactive) | > 100 µM (inactive) | > 100 µM (inactive) | > 100 µM (inactive) | > 100 µM (inactive) | > 100 µM (inactive) | > 100 µM (inactive)
[N-]=[N+]=Nc1c(-c2ccccc2)c(=O)n(-c2ccccc2)c2ccccc12 | 99.5 µM (inactive) | > 100 µM (inactive) | 49 µM (inactive) | > 100 µM (inactive) | 45.3 µM (inactive) | 24.6 µM (inactive) | 49.4 µM (inactive) | 27.7 µM (inactive) | > 100 µM (inactive) | 34.7 µM (inactive) | 32.4 µM (inactive) | – | – | > 100 µM (inactive) | 45.7 µM (inactive) | 13.2 µM (inactive) | 65.8 µM (inactive) | 62.2 µM (inactive) | 74.3 µM (inactive) | > 100 µM (inactive)
CCOP(=O)(OCC)C(Nc1cccc(F)c1)c1ccccc1 (stereo unspecified) | > 100 µM (inactive) | > 100 µM (inactive) | 54.7 µM (inactive) | > 100 µM (inactive) | > 100 µM (inactive) | 22.7 µM (inactive) | 32.7 µM (inactive) | 36.1 µM (inactive) | > 100 µM (inactive) | 44.1 µM (inactive) | 50.2 µM (inactive) | – | > 100 µM (inactive) | 47.1 µM (inactive) | 25.2 µM (inactive) | 59 µM (inactive) | 45.1 µM (inactive) | 69.5 µM (inactive) | 75.5 µM (inactive) | 38.9 µM (inactive)
CSc1ccc2c(cc1=O)[C@@H](NC(=O)c1ccc([N+](=O)[O-])cc1)CCc1cc(O)c(O)c(O)c1-2 | 16.2 µM (inactive) | 28.8 µM (inactive) | 32.8 µM (inactive) | > 100 µM (inactive) | 22.4 µM (inactive) | > 100 µM (inactive) | > 100 µM (inactive) | 37.2 µM (inactive) | 60.3 µM (inactive) | 34.8 µM (inactive) | > 100 µM (inactive) | > 100 µM (inactive) | 18.4 µM (inactive) | 4.58 µM (inactive) | > 100 µM (inactive) | 59 µM (inactive) | > 100 µM (inactive) | 30.5 µM (inactive) | 28.2 µM (inactive) | 3.99 µM (inactive)
c1ccc2c3c(c(N4CCNCC4)nc2c1)CCCC3 | 17.7 µM (inactive) | 10.7 µM (inactive) | 21.6 µM (inactive) | 18.8 µM (inactive) | 13.9 µM (inactive) | 13.5 µM (inactive) | 14.2 µM (inactive) | 15.3 µM (inactive) | 13.9 µM (inactive) | 14.1 µM (inactive) | 13 µM (inactive) | 13.7 µM (inactive) | 14.6 µM (inactive) | 9.98 µM (inactive) | 10.4 µM (inactive) | 15.2 µM (inactive) | 8.15 µM (inactive) | 5.26 µM (inactive) | 14.3 µM (inactive) | 13.2 µM (inactive)
